Source: publication PMC3605511, “Tumor P-Glycoprotein Correlates with Efficacy of PF-3758309 in in vitro and in vivo Models of Colorectal Cancer” (Frontiers in Pharmacology, 2013)

Assays:
CUCRC036 CRC PDTX model = experiment: Patient derived tumor xenograft efficacy, CUCRC036; assay type: in vivo, mice; conditions: 25 mg/kg orally twice daily, 22–56 days, end of study tumor volumes
Method: For patient tumor xenografts, surgical specimens of patients undergoing either removal of a primary or metastatic tumor at the University of Colorado Hospital are implanted subcutaneously into five mice for each patient with a 10-G trochar. After a subsequent growth and passage in mice, tumors are excised, and expanded into cohorts for treatment (n = 6–15 per group). Mice were treated with PF-309 or vehicle (0.5% methylcellulose) for 22–56 days (until control tumor volume reach ∼1500 mm^3) twice daily (BID) by oral gavage (PO). Monitoring of mice and measurements of tumors were conducted as described above. % Growth Inhibition= (average control volume−average treated volume)/average control volume×100% In addition to the cell line xenografts, we also treated 12 different patient derived tumor xenograft (PDTX) CRC models with PF-309 (Figure 6). We were unable to assess how ABCB1 gene expression correlated with efficacy in these models. The PDTX models are propagated in vivo, are not immortalized, and are not grown in in vitro culture. […] Tumor and plasma sample pairs were collected from animals at the end of study for eight tumor models (three cell line xenografts and five PDTX models) and concentrations of PF-309 were measured. […]

[1] = system: Colo201 cell line xenograft; experiment: CRC cell line xenograft efficacy, Colo201; assay type: in vivo, mice; conditions: 25 mg/kg orally twice daily, 14–28 days, end of study tumor volumes
Method: For cell line xenografts, CRC cells were harvested in exponential phase growth and resuspended in a 1:1 mixture of serum-free RPMI 1640 and Matrigel (BD Biosciences). Five to ten million cells per mouse were injected subcutaneously into the flank using a 23-gauge needle. Mice were monitored daily for signs of toxicity and were weighed twice weekly. Tumor size was evaluated twice per week by caliper measurements using the following formula: tumor volume = length × width^2 × 0.52. When tumors reached 200–300 mm^3 mice were randomized into two groups with at least 10 tumors per group. Mice were then treated for 14–28 days (until control tumor volume reach ∼1500 mm^3) with either vehicle control (0.5% methylcellulose), or PF-3758309 (25 mg/kg) twice daily by oral gavage.
Human tumor xenograft models were used to evaluate the efficacy of PF-309 in vivo. Eleven different CRC cell line tumor xenografts were treated with 25 mg/kg PF-309 twice daily by oral gavage for 14–28 days (until control tumor volumes reached ∼1500 mm^3). Tumor volumes were measured throughout the study and the % growth inhibition was calculated from the average end of study tumor volumes by:
% Growth Inhibition= (average control volume−average treated volume)/average control volume×100%

Cc1nc(Nc2n[nH]c3c2CN(C(=O)N[C@H](CN(C)C)c2ccccc2)C3(C)C)c2sccc2n1 [PF-309]
% Growth inhibition (CUCRC036 CRC PDTX model): 35% | % Growth inhibition [1]: 45%
